Results as given in publication PMC6615261, “Repurposing Azithromycin and Rifampicin Against Gram-Negative Pathogens by Combination With Peptidomimetics” (Frontiers in Cellular and Infection Microbiology, 2019).

Experiments:
K. pneumoniae ST258 [1] = assay: Potentiation of additional antibiotics (COMPAN1F plates), MIC; assay type: cell-based, Klebsiella pneumoniae; conditions: for MIC of antibiotic in presence of peptidomimetic 1: + 1 μM peptidomimetic 1; for MIC of antibiotic in presence of peptidomimetic 15: + 1 μM peptidomimetic 15; for MIC of antibiotic in presence of peptidomimetic 26: + 1 μM peptidomimetic 26; for MIC: Klebsiella pneumoniae, read-out: MIC of antibiotic alone; for MIC / MIC of antibiotic alone: no peptidomimetic
Protocol: (§1) Minimal inhibitory concentrations (MICs) of peptidomimetics, antibiotics and their combinations were determined by broth microdilution according to the Clinical Laboratory Standards Institute performance standards (Clinical and Laboratory Standards Institute, [2013]). […] Since rifampicin and azithromycin mainly are used to treat infections with Gram-positive pathogens only CLSI clinical breakpoints were available for such bacteria. […] Potentiation of additional antibiotics by peptidomimetics was determined by using commercial 96-well plates containing varied concentrations of standard antibiotics (COMPAN1F; Trek Diagnostic Systems Inc.). The peptidomimetics were added immediately prior to inoculation with pathogen, and then MICs were determined as above. The MICs of peptidomimetic/antibiotic combinations were determined according to the method above, and the concentration ratios were selected based upon checkerboard results with 2:1 and 1:4 ratio of peptidomimetic with rifampicin or azithromycin, respectively. Minimal bactericidal concentrations (MBCs) were determined by using growth-curve assay plates. MIC plates were prepared as above, and then the plates were incubated at 37°C with continuous shaking. Growth was recorded at 10 min intervals as optical density (OD) at 600 nm during 24 h. At 24 h, for wells without growth, a sample was diluted 10-fold in sterile saline (0.9% sodium chloride) and plated onto MHA, following CLSI guidelines (Clinical and Laboratory Standards Institute, [1999]).

E. coli ST131 = assay: as above; assay type: cell-based, Escherichia coli; conditions: for MIC: Escherichia coli, read-out: MIC of antibiotic alone; for MIC / MIC of antibiotic alone: no peptidomimetic; for MIC of antibiotic in presence of peptidomimetic 26: + 0.25 μM peptidomimetic 26; for MIC of antibiotic in presence of peptidomimetic 1: + 0.5 μM peptidomimetic 1; for MIC of antibiotic in presence of peptidomimetic 15: + 0.5 μM peptidomimetic 15
Protocol: as §1

MDR E. coli ST131 = assay: Screening of peptidomimetic-antibiotic combinations (growth / growth inhibition); assay type: cell-based, Escherichia coli; design: key to Growth in combination with RIF / Growth in combination with AZM: Growth (+); growth inhibition (–); conditions: for Growth in combination with AZM: peptidomimetic 0.5 μM + azithromycin 1 μg/mL; for Growth in combination with RIF: peptidomimetic 0.5 μM + rifampicin 0.5 μg/mL; for Potentiation in the screening, rifampicin or azithromycin: 0.5 μM peptidomimetic
Protocol: as §1

K. pneumoniae ST258 [2] = assay: as above; assay type: cell-based, Klebsiella pneumoniae; design: key to Growth in combination with RIF / Growth in combination with AZM: Growth (+); growth inhibition (–); conditions: for Growth in combination with AZM: peptidomimetic 0.5 μM + azithromycin 1 μg/mL; for Growth in combination with RIF: peptidomimetic 0.5 μM + rifampicin 0.5 μg/mL; for Potentiation in the screening, rifampicin or azithromycin: 0.5 μM peptidomimetic
Protocol: as §1

Molecule	Growth in combination with AZM (MDR E. coli ST131)	Growth in combination with RIF (MDR E. coli ST131)	Growth in combination with AZM (K. pneumoniae ST258 [2])	Growth in combination with RIF (K. pneumoniae ST258 [2])	also measured
CC[C@H]1OC(=O)[C@H](C)[C@@H](O[C@H]2C[C@@](C)(OC)[C@@H](O)[C@H](C)O2)[C@H](C)[C@@H](O[C@@H]2O[C@H](C)C[C@H](N(C)C)[C@H]2O)[C@](C)(O)C[C@@H](C)C(=O)[C@H](C)[C@@H](O)[C@]1(C)O [Erythromycin]					MIC of antibiotic in presence of peptidomimetic 1 (K. pneumoniae ST258 [1]): >4 µg/mL; MIC of antibiotic in presence of peptidomimetic 15 (K. pneumoniae ST258 [1]): >4 µg/mL; MIC of antibiotic in presence of peptidomimetic 26 (K. pneumoniae ST258 [1]): >4 µg/mL; MIC (K. pneumoniae ST258 [1]): > 4 µg/mL; MIC (E. coli ST131): > 4 µg/mL; MIC of antibiotic alone (E. coli ST131): >4 µg/mL
CCN1CCN(c2cc3c(cc2F)c(=O)c(C(=O)O)cn3C2CC2)CC1 [Enrofloxacin]					MIC of antibiotic in presence of peptidomimetic 1 (K. pneumoniae ST258 [1]): >2 µg/mL; MIC of antibiotic in presence of peptidomimetic 15 (K. pneumoniae ST258 [1]): >2 µg/mL; MIC of antibiotic in presence of peptidomimetic 26 (K. pneumoniae ST258 [1]): >2 µg/mL; MIC (K. pneumoniae ST258 [1]): > 2 µg/mL; MIC of antibiotic in presence of peptidomimetic 26 (E. coli ST131): >2 µg/mL; MIC of antibiotic in presence of peptidomimetic 1 (E. coli ST131): >2 µg/mL; MIC of antibiotic in presence of peptidomimetic 15 (E. coli ST131): >2 µg/mL; MIC (E. coli ST131): > 2 µg/mL
CNC(C)C1CCC(N)C(OC2C(N)CC(N)C(OC3OCC(C)(O)C(NC)C3O)C2O)O1 (stereo not shown) [Gentamicin]					MIC of antibiotic in presence of peptidomimetic 1 (K. pneumoniae ST258 [1]): ≤1 µg/mL; MIC of antibiotic in presence of peptidomimetic 15 (K. pneumoniae ST258 [1]): 2 µg/mL; MIC of antibiotic in presence of peptidomimetic 26 (K. pneumoniae ST258 [1]): ≤1 µg/mL; MIC (K. pneumoniae ST258 [1]): 2 µg/mL; MIC of antibiotic in presence of peptidomimetic 26 (E. coli ST131): >8 µg/mL; MIC of antibiotic in presence of peptidomimetic 1 (E. coli ST131): >8 µg/mL; MIC of antibiotic in presence of peptidomimetic 15 (E. coli ST131): >8 µg/mL; MIC (E. coli ST131): > 8 µg/mL
O=C(N[C@H](CO)[C@H](O)c1ccc([N+](=O)[O-])cc1)C(Cl)Cl [Chloramphenicol]					MIC of antibiotic in presence of peptidomimetic 1 (K. pneumoniae ST258 [1]): >16 µg/mL; MIC of antibiotic in presence of peptidomimetic 15 (K. pneumoniae ST258 [1]): >16 µg/mL; MIC of antibiotic in presence of peptidomimetic 26 (K. pneumoniae ST258 [1]): >16 µg/mL; MIC (K. pneumoniae ST258 [1]): > 16 µg/mL; MIC of antibiotic in presence of peptidomimetic 26 (E. coli ST131): ≤4 µg/mL; MIC of antibiotic in presence of peptidomimetic 1 (E. coli ST131): ≤4 µg/mL; MIC of antibiotic in presence of peptidomimetic 15 (E. coli ST131): ≤4 µg/mL; MIC (E. coli ST131): ≤ 4 µg/mL
COCC1=C(C(=O)O)N2C(=O)[C@@H](NC(=O)/C(=N\OC)c3csc(N)n3)[C@H]2SC1 [Cefpodoxime]					MIC of antibiotic in presence of peptidomimetic 1 (K. pneumoniae ST258 [1]): >16 µg/mL; MIC of antibiotic in presence of peptidomimetic 15 (K. pneumoniae ST258 [1]): >16 µg/mL; MIC of antibiotic in presence of peptidomimetic 26 (K. pneumoniae ST258 [1]): >16 µg/mL; MIC (K. pneumoniae ST258 [1]): > 16 µg/mL; MIC of antibiotic in presence of peptidomimetic 26 (E. coli ST131): >16 µg/mL; MIC of antibiotic in presence of peptidomimetic 1 (E. coli ST131): >16 µg/mL; MIC of antibiotic in presence of peptidomimetic 15 (E. coli ST131): >16 µg/mL; MIC (E. coli ST131): > 16 µg/mL
Ac-(Lys-βNspe)6-NH2 [Peptidomimetic 6]	–	–	+	+	
Lau-(Lys-βNPhe)6-NH2 [Peptidomimetic 37]	+	–	+	+	
Oct-[(S)-Aoc]-(Lys-βNphe)6-NH2 [Peptidomimetic 42]	+	+	+	+	
Oct-(Lys-βNspe)6-NH2 [Peptidomimetic 35]	+	+	+	+	
CO/N=C(/C(=O)N[C@@H]1C(=O)N2C(C(=O)O)=C([C@@H]3CCCO3)CS[C@H]12)c1csc(N)n1 [Cefovecin]					MIC of antibiotic in presence of peptidomimetic 1 (K. pneumoniae ST258 [1]): >8 µg/mL; MIC of antibiotic in presence of peptidomimetic 15 (K. pneumoniae ST258 [1]): >8 µg/mL; MIC of antibiotic in presence of peptidomimetic 26 (K. pneumoniae ST258 [1]): >8 µg/mL; MIC of antibiotic alone (K. pneumoniae ST258 [1]): >8 µg/mL; MIC of antibiotic in presence of peptidomimetic 26 (E. coli ST131): >8 µg/mL; MIC of antibiotic in presence of peptidomimetic 1 (E. coli ST131): >8 µg/mL; MIC of antibiotic in presence of peptidomimetic 15 (E. coli ST131): >8 µg/mL; MIC of antibiotic alone (E. coli ST131): >8 µg/mL
R(Tbt)R(NPhe) [Peptidomimetic 39]	+	+	+	+	
Trimethoprim/sulfamethoxazole					MIC of antibiotic in presence of peptidomimetic 1 (K. pneumoniae ST258 [1]): >38 µg/mL; MIC of antibiotic in presence of peptidomimetic 15 (K. pneumoniae ST258 [1]): >38 µg/mL; MIC of antibiotic in presence of peptidomimetic 26 (K. pneumoniae ST258 [1]): >38 µg/mL; MIC of antibiotic alone (K. pneumoniae ST258 [1]): >38 µg/mL; MIC of antibiotic in presence of peptidomimetic 26 (E. coli ST131): >38 µg/mL; MIC of antibiotic in presence of peptidomimetic 1 (E. coli ST131): >38 µg/mL; MIC of antibiotic in presence of peptidomimetic 15 (E. coli ST131): >38 µg/mL; MIC of antibiotic alone (E. coli ST131): >38 µg/mL
(NLys)LG(NLys)IW(NLys)I(Nlys)2LF-NH2 [Peptidomimetic 32]	+	+	+	+	
NCC[C@H](O)C(=O)N[C@@H]1C[C@H](N)[C@@H](O[C@H]2O[C@H](CN)[C@@H](O)[C@H](O)[C@H]2O)[C@H](O)[C@H]1O[C@H]1O[C@H](CO)[C@@H](O)[C@H](N)[C@H]1O [Amikacin]					MIC of antibiotic in presence of peptidomimetic 1 (K. pneumoniae ST258 [1]): 32 µg/mL; MIC of antibiotic in presence of peptidomimetic 15 (K. pneumoniae ST258 [1]): 32 µg/mL; MIC of antibiotic in presence of peptidomimetic 26 (K. pneumoniae ST258 [1]): 16 µg/mL; MIC (K. pneumoniae ST258 [1]): 32 µg/mL; MIC of antibiotic in presence of peptidomimetic 26 (E. coli ST131): 8 µg/mL; MIC of antibiotic in presence of peptidomimetic 1 (E. coli ST131): >32 µg/mL; MIC of antibiotic in presence of peptidomimetic 15 (E. coli ST131): 8 µg/mL; MIC (E. coli ST131): 16 µg/mL
Ac-(NLys-Trp)8-NH2 [Peptidomimetic 20]	+	–	+	+	
Ac-(hArg-βNspe)6-(Trp)2-NH2 [Peptidomimetic 16]	+	+	+	+	
G(NLys)W(NLys)2II(NLys)VA(NLys)-NH2 [Peptidomimetic 31]	+	+	+	+	
Pam-(Lys-βNPhe)6-NH2 [Peptidomimetic 36]	+	+	+	+	
Pam-(Lys-βNspe-hArg-βNspe)2-NH2 [Peptidomimetic 13]	+	+	+	+	Potentiation in the screening, rifampicin or azithromycin (MDR E. coli ST131): did not exhibit any potentiation activity; Potentiation in the screening, rifampicin or azithromycin (K. pneumoniae ST258 [2]): did not exhibit any potentiation activity
F5Ph-acetic acid-(5F-Phe)-(Lys-βNspe-hArg-βNspe)3-NH2 [Peptidomimetic 29]	+	+	+	+	Potentiation in the screening, rifampicin or azithromycin (MDR E. coli ST131): did not exhibit any potentiation activity; Potentiation in the screening, rifampicin or azithromycin (K. pneumoniae ST258 [2]): did not exhibit any potentiation activity
Ac-(hArg-βNchx-Lys-βNspe)3-NH2 [Peptidomimetic 8]	+	+	+	+	
Ac-(bNLys-bNPhe)8-NH2 [Peptidomimetic 18]	+	+	+	+	
Pam-[(S)-Aoc]-(Lys-βNphe)6-NH2 [Peptidomimetic 11]	+	+	+	+	
Ac-(hArg-βNPhe)5-NH2 [Peptidomimetic 3]	+	–	+	+	
Ac-(bNLys-Trp)8-NH2 [Peptidomimetic 21]	+	–	+	+	
Cin-(Lys-βNspe-hArg-βNspe)3-NH2 [Peptidomimetic 27]	+	+	+	+	Potentiation in the screening, rifampicin or azithromycin (MDR E. coli ST131): did not exhibit any potentiation activity; Potentiation in the screening, rifampicin or azithromycin (K. pneumoniae ST258 [2]): did not exhibit any potentiation activity
Ac-(Lys-βNspe-hArg-βNspe)2-NH2 [Peptidomimetic 10]	+	–	+	+	Screening result with rifampicin (MDR E. coli ST131; 0.5 μM peptidomimetic + 0.5 μg/mL rifampicin): potentiated rifampicin activity
